Laboratory results as given in ChEMBL document CHEMBL1201862, “PubChem BioAssay data set” (2004).
Activity calls are given as the source filed them.

Experiments:
[1] = molecular target: Photoreceptor-specific nuclear receptor (Homo sapiens, UniProt Q9Y5X4); format: functional;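 also: potency for compounds that break the NR2E3 corepressor complex and count as activators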
INS1 = assay: beta cell apoptosis inhibitors, cytokine rescue, dose response, luminescence, retest (AID 449756); format: functional, cell-based; conditions: Rattus norvegicus;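 also: cell death triggered by IL-1 beta plus TNF-alpha plus IFN-gamma mixture; protective hits raise ATP signal compared with cytokine alone wells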
[2] = Luminescence-based dose response cell-based high throughput screening assay for cytotoxic compounds using the IEC-6 intestinal epithelial cell line. [Related pubchem assays: 1858 (Summary AID.), 1825 (Counterscreen.), 1907 (Confirmation screen.)]; format: functional
Exodeoxyribonuclease V = molecular target: T1, Exodeoxyribonuclease V (Escherichia coli (strain K12), UniProt P04993+P07648+P08394); assay: E. coli RecBCD inhibitors, dose response, counter-screen for AddAB inhibitor project, absorbance, V66 E. coli, mutant T4 phage (AID 492957); format: functional, cell-based, Escherichia coli str. K-12 substr. MG1655
T1 sequence (P04993 whole entry): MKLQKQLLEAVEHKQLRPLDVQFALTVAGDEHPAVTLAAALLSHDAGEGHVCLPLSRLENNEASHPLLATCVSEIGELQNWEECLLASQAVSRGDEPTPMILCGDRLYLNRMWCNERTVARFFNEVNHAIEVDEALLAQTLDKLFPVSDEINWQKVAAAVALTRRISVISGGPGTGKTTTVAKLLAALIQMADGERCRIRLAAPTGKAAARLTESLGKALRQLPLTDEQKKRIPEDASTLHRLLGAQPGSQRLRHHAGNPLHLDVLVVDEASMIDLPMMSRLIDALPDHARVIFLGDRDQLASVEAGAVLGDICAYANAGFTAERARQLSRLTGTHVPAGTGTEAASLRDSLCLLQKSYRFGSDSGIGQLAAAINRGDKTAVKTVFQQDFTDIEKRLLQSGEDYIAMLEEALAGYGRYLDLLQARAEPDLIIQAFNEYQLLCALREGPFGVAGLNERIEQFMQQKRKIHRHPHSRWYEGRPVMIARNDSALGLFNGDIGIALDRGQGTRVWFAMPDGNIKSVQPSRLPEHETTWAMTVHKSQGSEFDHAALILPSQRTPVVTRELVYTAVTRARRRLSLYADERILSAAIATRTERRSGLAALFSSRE
T1 sequence (P07648 whole entry): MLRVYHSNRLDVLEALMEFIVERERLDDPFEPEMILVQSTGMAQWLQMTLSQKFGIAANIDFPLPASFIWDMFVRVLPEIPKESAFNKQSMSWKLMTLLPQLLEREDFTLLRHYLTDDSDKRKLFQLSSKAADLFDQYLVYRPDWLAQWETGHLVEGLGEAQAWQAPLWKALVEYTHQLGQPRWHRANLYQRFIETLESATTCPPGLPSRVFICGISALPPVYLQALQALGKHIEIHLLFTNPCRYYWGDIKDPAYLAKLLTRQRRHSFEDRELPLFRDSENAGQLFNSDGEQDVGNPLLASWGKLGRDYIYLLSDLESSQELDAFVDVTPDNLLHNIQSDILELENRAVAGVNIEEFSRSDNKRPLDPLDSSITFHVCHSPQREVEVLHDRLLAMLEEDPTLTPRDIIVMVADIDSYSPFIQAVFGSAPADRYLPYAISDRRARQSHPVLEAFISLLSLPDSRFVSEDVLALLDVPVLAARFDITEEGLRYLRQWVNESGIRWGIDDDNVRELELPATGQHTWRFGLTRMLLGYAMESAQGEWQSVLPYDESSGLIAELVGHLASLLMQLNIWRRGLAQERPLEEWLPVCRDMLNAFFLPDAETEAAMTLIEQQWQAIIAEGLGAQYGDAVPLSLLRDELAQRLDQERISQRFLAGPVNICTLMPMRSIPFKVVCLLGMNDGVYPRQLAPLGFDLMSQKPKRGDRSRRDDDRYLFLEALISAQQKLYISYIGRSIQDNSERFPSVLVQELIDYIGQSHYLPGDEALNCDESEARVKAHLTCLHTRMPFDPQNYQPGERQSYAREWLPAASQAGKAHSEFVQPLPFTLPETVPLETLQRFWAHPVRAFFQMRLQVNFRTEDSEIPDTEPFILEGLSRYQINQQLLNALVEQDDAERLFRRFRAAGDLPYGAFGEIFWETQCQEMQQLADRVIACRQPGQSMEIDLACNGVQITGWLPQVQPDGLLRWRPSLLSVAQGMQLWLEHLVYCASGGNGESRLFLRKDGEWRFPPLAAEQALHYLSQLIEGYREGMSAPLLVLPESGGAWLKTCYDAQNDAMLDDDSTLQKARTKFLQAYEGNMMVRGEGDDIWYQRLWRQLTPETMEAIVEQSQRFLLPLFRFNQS
T1 sequence (P08394 whole entry): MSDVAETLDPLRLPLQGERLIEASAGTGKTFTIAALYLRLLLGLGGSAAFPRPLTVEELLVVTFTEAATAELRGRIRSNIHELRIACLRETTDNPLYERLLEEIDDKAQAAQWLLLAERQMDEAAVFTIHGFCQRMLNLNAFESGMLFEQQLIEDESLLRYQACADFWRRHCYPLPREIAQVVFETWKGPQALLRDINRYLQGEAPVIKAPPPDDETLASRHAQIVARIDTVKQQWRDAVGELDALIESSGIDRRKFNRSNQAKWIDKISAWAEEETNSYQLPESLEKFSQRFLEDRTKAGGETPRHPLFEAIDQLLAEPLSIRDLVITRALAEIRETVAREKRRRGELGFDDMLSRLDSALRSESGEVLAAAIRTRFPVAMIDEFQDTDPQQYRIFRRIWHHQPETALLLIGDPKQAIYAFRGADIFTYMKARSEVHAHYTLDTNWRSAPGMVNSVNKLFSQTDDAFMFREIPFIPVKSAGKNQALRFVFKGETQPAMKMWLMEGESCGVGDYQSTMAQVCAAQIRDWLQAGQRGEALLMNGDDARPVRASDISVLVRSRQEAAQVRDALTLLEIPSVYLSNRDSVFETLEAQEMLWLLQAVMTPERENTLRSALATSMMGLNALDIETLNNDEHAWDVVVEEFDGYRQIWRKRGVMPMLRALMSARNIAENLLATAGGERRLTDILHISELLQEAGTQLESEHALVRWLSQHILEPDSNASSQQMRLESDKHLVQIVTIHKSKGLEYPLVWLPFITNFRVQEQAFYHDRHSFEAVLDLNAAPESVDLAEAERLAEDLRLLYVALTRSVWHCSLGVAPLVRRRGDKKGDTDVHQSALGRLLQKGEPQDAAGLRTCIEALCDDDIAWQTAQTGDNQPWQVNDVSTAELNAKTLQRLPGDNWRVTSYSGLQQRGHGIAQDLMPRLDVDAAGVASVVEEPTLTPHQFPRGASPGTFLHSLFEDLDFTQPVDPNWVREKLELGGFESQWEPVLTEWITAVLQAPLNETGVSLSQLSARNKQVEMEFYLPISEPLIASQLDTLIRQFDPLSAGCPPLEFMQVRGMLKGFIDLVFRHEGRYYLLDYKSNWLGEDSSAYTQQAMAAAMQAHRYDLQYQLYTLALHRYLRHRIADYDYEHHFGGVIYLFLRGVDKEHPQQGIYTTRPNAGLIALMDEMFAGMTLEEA

Chain of Photoreceptor-specific nuclear receptor (Q9Y5X4 whole entry): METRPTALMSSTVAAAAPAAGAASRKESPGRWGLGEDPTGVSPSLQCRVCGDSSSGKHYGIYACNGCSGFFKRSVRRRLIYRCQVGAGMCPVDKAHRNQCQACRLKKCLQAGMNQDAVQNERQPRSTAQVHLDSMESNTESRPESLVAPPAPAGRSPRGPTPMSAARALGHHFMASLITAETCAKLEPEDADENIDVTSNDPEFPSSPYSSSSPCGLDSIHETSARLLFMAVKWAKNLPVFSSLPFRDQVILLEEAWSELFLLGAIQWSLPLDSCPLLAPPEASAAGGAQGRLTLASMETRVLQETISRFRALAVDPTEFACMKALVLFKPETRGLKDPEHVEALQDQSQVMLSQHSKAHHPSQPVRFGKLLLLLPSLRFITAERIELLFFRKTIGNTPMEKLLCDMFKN

COC(=O)c1cc(C)nc2c1C(=O)C(=O)C=C2N1CCOCC1
IC50 [1]: > 39.8 µM (not active) | AC50 (INS1): 2.71 µM (active)

O=C1c2ccccc2C(=O)c2[nH]c(O)nc21
IC50 [2]: 1.81 µM (active) | IC50 (Exodeoxyribonuclease V): > 119 µM (inactive)
